Measurements from PubChem BioAssay (NCI).
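In this assay, cells in 96-well plates receive the compound at five concentrations for 48 hours. Endpoints are linearly interpolated between the surrounding concentrations. TGI: total growth inhibition.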

Experiments:
Experiment in all cases: inhibition of tumour cell growth, NCI panel, 48 h
A549 NSCLC = test system: A549 NSCLC
LXFL 529 NSCLC = test system: LXFL 529 NSCLC
EKVX NSCLC = test system: EKVX NSCLC
MOLT-4 leukemia = test system: MOLT-4 leukemia
HCT-116 colon = test system: HCT-116 colon
SK-MEL-2 melanoma = test system: SK-MEL-2 melanoma
DLD-1 colon = test system: DLD-1 colon
SN12C renal = test system: SN12C renal
HOP-18 NSCLC = test system: HOP-18 NSCLC
SK-OV-3 ovarian = test system: SK-OV-3 ovarian
ACHN renal = test system: ACHN renal
RXF 393 renal = test system: RXF 393 renal
DMS 273 small cell lung = test system: DMS 273 small cell lung
OVCAR-4 ovarian = test system: OVCAR-4 ovarian
SNB-75 CNS = test system: SNB-75 CNS
SF-539 CNS = test system: SF-539 CNS
SF-295 CNS = test system: SF-295 CNS
U251 CNS = test system: U251 CNS
HL-60(TB) leukemia = test system: HL-60(TB) leukemia
SNB-19 CNS = test system: SNB-19 CNS
HCT-15 colon = test system: HCT-15 colon
HOP-92 NSCLC = test system: HOP-92 NSCLC
M19-MEL melanoma = test system: M19-MEL melanoma
SK-MEL-5 melanoma = test system: SK-MEL-5 melanoma
SF-268 CNS = test system: SF-268 CNS
SNB-78 CNS = test system: SNB-78 CNS
NCI-H460 lung = test system: NCI-H460 lung
RPMI-8226 leukemia = test system: RPMI-8226 leukemia
CCRF-CEM leukemia = test system: CCRF-CEM leukemia
OVCAR-3 ovarian = test system: OVCAR-3 ovarian
TK-10 renal = test system: TK-10 renal
SW-620 colon = test system: SW-620 colon
DMS 114 small cell lung = test system: DMS 114 small cell lung
M14 melanoma = test system: M14 melanoma
IGROV1 ovarian = test system: IGROV1 ovarian
OVCAR-5 ovarian = test system: OVCAR-5 ovarian
HCC-2998 colon = test system: HCC-2998 colon
KM20L2 colon = test system: KM20L2 colon
RXF-631 renal = test system: RXF-631 renal
HOP-62 NSCLC = test system: HOP-62 NSCLC
NCI-H23 lung = test system: NCI-H23 lung
K-562 leukemia = test system: K-562 leukemia
LOX IMVI melanoma = test system: LOX IMVI melanoma
KM12 colon = test system: KM12 colon
MALME-3M melanoma = test system: MALME-3M melanoma
UACC-62 melanoma = test system: UACC-62 melanoma
OVCAR-8 ovarian = test system: OVCAR-8 ovarian
COLO 205 colon = test system: COLO 205 colon
UO-31 renal = test system: UO-31 renal
786-0 renal = test system: 786-0 renal
UACC-257 melanoma = test system: UACC-257 melanoma
SK-MEL-28 melanoma = test system: SK-MEL-28 melanoma
CAKI-1 renal = test system: CAKI-1 renal
NCI-H522 lung = test system: NCI-H522 lung
SR leukemia = test system: SR leukemia
HT29 colon = test system: HT29 colon
NCI-H226 lung = test system: NCI-H226 lung
A498 renal = test system: A498 renal

`CC(=O)/C=C\C1CC2C=CC1C2` (configuration not stated) showed a TGI (A549 NSCLC) of over 100 µM, a TGI (LXFL 529 NSCLC) of over 100 µM and a TGI (EKVX NSCLC) of over 100 µM. It also gave a TGI (MOLT-4 leukemia) of 66.1 µM, a TGI (HCT-116 colon) of 54.5 µM and a TGI (SK-MEL-2 melanoma) of over 100 µM. The TGI (DLD-1 colon) was over 100 µM, the TGI (SN12C renal) was over 100 µM and the TGI (HOP-18 NSCLC) was over 100 µM. The TGI (SK-OV-3 ovarian) was over 100 µM, the TGI (ACHN renal) was over 100 µM and the TGI (RXF 393 renal) was over 100 µM. It also gave a TGI (DMS 273 small cell lung) of over 100 µM, a TGI (OVCAR-4 ovarian) of over 100 µM and a TGI (SNB-75 CNS) of 72.2 µM. For the same compound, the TGI (SF-539 CNS) was over 100 µM, the TGI (SF-295 CNS) was over 100 µM and the TGI (U251 CNS) was over 100 µM. The TGI (HL-60(TB) leukemia) was 99.7 µM, the TGI (SNB-19 CNS) was over 100 µM and the TGI (HCT-15 colon) was over 100 µM. The TGI (HOP-92 NSCLC) was 79.9 µM, the TGI (M19-MEL melanoma) was over 100 µM and the TGI (SK-MEL-5 melanoma) was over 100 µM. The TGI (SF-268 CNS) was 76.1 µM, the TGI (SNB-78 CNS) was 73.5 µM and the TGI (NCI-H460 lung) was over 100 µM. The TGI (RPMI-8226 leukemia) was over 100 µM, the TGI (CCRF-CEM leukemia) was 70.3 µM and the TGI (OVCAR-3 ovarian) was over 100 µM. The TGI (TK-10 renal) was over 100 µM, the TGI (SW-620 colon) was over 100 µM and the TGI (DMS 114 small cell lung) was 82.8 µM. For the same compound, the TGI (M14 melanoma) was over 100 µM, the TGI (IGROV1 ovarian) was over 100 µM and the TGI (OVCAR-5 ovarian) was over 100 µM. The TGI (HCC-2998 colon) was 73.2 µM, the TGI (KM20L2 colon) was over 100 µM and the TGI (RXF-631 renal) was over 100 µM. It also gave a TGI (HOP-62 NSCLC) of over 100 µM, a TGI (NCI-H23 lung) of over 100 µM and a TGI (K-562 leukemia) of over 100 µM. The TGI (LOX IMVI melanoma) was 65.4 µM, the TGI (KM12 colon) was over 100 µM and the TGI (MALME-3M melanoma) was over 100 µM. For the same compound, the TGI (UACC-62 melanoma) was over 100 µM, the TGI (OVCAR-8 ovarian) was over 100 µM and the TGI (COLO 205 colon) was over 100 µM. The TGI (UO-31 renal) was over 100 µM and the TGI (786-0 renal) was over 100 µM.
`O=C1CCC(c2nc3cc(Cl)ccc3o2)C(=O)N1` (configuration not stated) gave a TGI (UACC-257 melanoma) of over 100 µM, a TGI (A549 NSCLC) of over 100 µM and a TGI (SK-MEL-28 melanoma) of over 100 µM. It also gave a TGI (LXFL 529 NSCLC) of over 100 µM, a TGI (EKVX NSCLC) of over 100 µM and a TGI (MOLT-4 leukemia) of over 100 µM. For the same compound, the TGI (CAKI-1 renal) was over 100 µM, the TGI (HCT-116 colon) was over 100 µM and the TGI (SK-MEL-2 melanoma) was over 100 µM. It also gave a TGI (DLD-1 colon) of over 100 µM, a TGI (SN12C renal) of over 100 µM and a TGI (NCI-H522 lung) of over 100 µM. The TGI (HOP-18 NSCLC) was over 100 µM, the TGI (SK-OV-3 ovarian) was over 100 µM and the TGI (ACHN renal) was over 100 µM. It also gave a TGI (RXF 393 renal) of over 100 µM, a TGI (SR leukemia) of over 100 µM and a TGI (DMS 273 small cell lung) of over 100 µM. The TGI (OVCAR-4 ovarian) was over 100 µM, the TGI (SNB-75 CNS) was over 100 µM and the TGI (SF-539 CNS) was over 100 µM. It also gave a TGI (SF-295 CNS) of over 100 µM, a TGI (U251 CNS) of over 100 µM and a TGI (HL-60(TB) leukemia) of over 100 µM. For the same compound, the TGI (SNB-19 CNS) was over 100 µM, the TGI (HCT-15 colon) was over 100 µM and the TGI (HT29 colon) was over 100 µM. For the same compound, the TGI (HOP-92 NSCLC) was over 100 µM, the TGI (M19-MEL melanoma) was over 100 µM and the TGI (SK-MEL-5 melanoma) was over 100 µM. The TGI (SF-268 CNS) was over 100 µM, the TGI (SNB-78 CNS) was over 100 µM and the TGI (NCI-H460 lung) was over 100 µM. It also gave a TGI (CCRF-CEM leukemia) of over 100 µM, a TGI (OVCAR-3 ovarian) of over 100 µM and a TGI (TK-10 renal) of over 100 µM. For the same compound, the TGI (SW-620 colon) was over 100 µM, the TGI (DMS 114 small cell lung) was over 100 µM and the TGI (M14 melanoma) was over 100 µM. It also gave a TGI (NCI-H226 lung) of over 100 µM, a TGI (IGROV1 ovarian) of over 100 µM and a TGI (OVCAR-5 ovarian) of over 100 µM. For the same compound, the TGI (HCC-2998 colon) was over 100 µM, the TGI (A498 renal) was over 100 µM and the TGI (KM20L2 colon) was over 100 µM. The TGI (RXF-631 renal) was over 100 µM, the TGI (HOP-62 NSCLC) was over 100 µM and the TGI (NCI-H23 lung) was over 100 µM. It also gave a TGI (K-562 leukemia) of over 100 µM, a TGI (LOX IMVI melanoma) of over 100 µM and a TGI (KM12 colon) of over 100 µM. For the same compound, the TGI (MALME-3M melanoma) was over 100 µM, the TGI (UACC-62 melanoma) was over 100 µM and the TGI (OVCAR-8 ovarian) was over 100 µM. For the same compound, the TGI (COLO 205 colon) was over 100 µM, the TGI (UO-31 renal) was over 100 µM and the TGI (786-0 renal) was over 100 µM.
